Experimental data reported in patent publication US20170182026A1, “Anti-Metastasis Treatment of Melanoma” (University Hospitals Cleveland Medical Center, priority 2015, published 2017).
Entries after “also recorded” stand apart in the source; their conditions may differ.

Assays:
autophagic flux [1] = assay: Western blot of LC3 II/I ratio and p62 levels after connexin (GJIC) inhibitors; assay type: cell-based; settings: A375.52 melanoma cells, treatment over 24 hours, FIG. 4A
From the text: FIGS. 4A&B presents exemplary data showing an assessment of connexin inhibition on autophagic flux and autophagic blockade on connexin protein levels. […] Tubulin as a loading control. H2O=water control, CBX=Carbenoxolone, Hep=1-Eleptanol, Oct=1-octanol, D=DMSO, HCQ=Hydroxychloroquine.
Connexin protein levels were examined within various melanoma cell lines, see FIG. 3. […] Connexins 43 and 26 has been studied previously in melanoma, and both also have shown relationships with autophagy. […] GJIC inhibition was explored, using three known connexin inhibitors, 1-octanol, 1-heptanol and carbenoxolone, the former of which is clinically available and is labeled as a food additive by the Food and Drug Administration, which is known to affect autophagic flux. GJIC inhibition was measured by changes noted in LC3 II/I ratios and p62 levels. (FIG. 4A).

melanoma cell lines = assay: Promega Cell-Titer Glo cell viability; assay type: cell-based; settings: two melanoma cell lines, 72 hours, FIG. 5A
Description: (§1) FIG. 5A-C presents exemplary data showing combinatory effects of hydroxychloroquine (HCQ) and 1-octanol on melanoma cell viability and death. […] 4-methyl-heptanol (1 mM) as negative control.
(§2) The effect of a combined inhibition of GJIC and autophagy was assessed, making use of Promega Cell-Titer Glo and Trypan blue exclusion assay to assess cell viability and cell death, respectively (FIG. 5A and FIG. 5B). […] (FIG. 5C) Cell migration was measured as distance traveled from the edge of a wound and not as percent wound closure.

A375.52 = assay: Trypan blue exclusion assay, cell death; assay type: cell-based; settings: A375.52, 72 hours, FIG. 5B
Description: as §1, §2

A375.52 cells = assay: Scratch assay, cell migration; assay type: cell-based; settings: over 24 hours, FIG. 5C
Description: as §1, §2

[2] = test system: gap junction intercellular communication; assay: Microinjection imaging assay, spread of reporter dye; assay type: cell-based; settings: time-lapse microscopy, FIGS. 7A&B
From the text: FIGS. 7A&B presents exemplary data Showing cell-cell communication in Glioblastoma Stem Cells (GSCs) cells with live imaging.
The functional status of overall connexin activity after autophagy inhibition will be addressed. […] To measure this, a microinjection imaging assay will be used. One cell is co-injected with a large fluorescent IgG that is unable to leave the parental cell along with a reporter dye that is capable of spreading to adjacent cells. Combining this with time-lapse microscopy, spread of the reporter dye (Lucifer yellow, 2NBDG-a fluorescent glucose analog) can be monitored, see FIGS. 7A&B. The spread of the dye is attenuated when using gap junction inhibitors, including carbenoxolone and 1-octanol. Utilization of multiple assessments of the gap junction intercellular communication, i.e. mRNA expression, protein levels and functional activity levels may pinpoint the particular modulation of GJIC that occurs with autophagic blockade in melanoma cells. […] Additionally, shRNA against shATG5, another key autophagy protein, could be utilized to determine if there were different effects.

autophagic flux [3] = settings: pharmacologic blockage of GJIC, reference [21]; cited from earlier work
Cx 36 and 50 = settings: reference [49]; cited from earlier work
connexins 26, 32, and 43 = settings: reference [49]; cited from earlier work
connexins = assay: Connexin protein levels after autophagy blockade; assay type: cell-based; settings: A375.52 cells, treatment over 24 hours, FIG. 4B
Description: FIGS. 4A&B presents exemplary data showing an assessment of connexin inhibition on autophagic flux and autophagic blockade on connexin protein levels. […] Tubulin as a loading control. H2O=water control, CBX=Carbenoxolone, Hep=1-Eleptanol, Oct=1-octanol, D=DMSO, HCQ=Hydroxychloroquine. Connexin protein levels were also assessed for possible modification of autophagic flux. For this purpose, hydroxychloroquine, a known autophagy inhibitor and clinically available medication was used. […] Specific autophagy inhibition may be assessed using shRNA (infra).

CCCCCCCCO [1-octanol]
p62 levels (autophagic flux [1]): increased p62 levels
total LC3 levels (autophagic flux [1]): changes in total LC3 levels
cell viability (melanoma cell lines): only small effects
cell death (A375.52): only small effects
cell migration (distance traveled from the edge of a wound) (A375.52 cells): no effect
spread of the reporter dye (Lucifer yellow, 2NBDG) [2]: attenuated

CC1(C)[C@@H](O)CC[C@]2(C)[C@H]3C(=O)C=C4[C@H]5C[C@@](C)(C(=O)O)CC[C@]5(C)CC[C@@]4(C)[C@]3(C)CC[C@@H]12 [18α glycyrrhetinic acid]
autophagic flux (autophagic flux [3]): decreased autophagic flux

CC1(C)[C@@H](OC(=O)CCC(=O)O)CC[C@]2(C)[C@H]3C(=O)C=C4[C@@H]5C[C@@](C)(C(=O)O)CC[C@]5(C)CC[C@@]4(C)[C@]3(C)CC[C@@H]12 [carbenoxolone]
LC3 II/I ratio (autophagic flux [1]): without clear changes in LC3 II/I ratio
p62 levels (autophagic flux [1]): decreased p62 levels somewhat
spread of the reporter dye (Lucifer yellow, 2NBDG) [2]: attenuated

OC(c1cc(C(F)(F)F)nc2c(C(F)(F)F)cccc12)C1CCCCN1 (stereo not drawn) [mefloquine]
block of connexin activity (Cx 36 and 50): block activity
block of connexin activity (connexins 26, 32, and 43): would require much higher doses to affect

CCN(CCO)CCCC(C)Nc1ccnc2cc(Cl)ccc12 (racemic) [hydroxychloroquine, (RS)-2-{{4-{(7-chloroquinolin-4-yl)amino}pentyl}(ethyl)amino}ethanol]
levels of connexins 43 and 46 (connexins): opposite effects on levels of connexins 43 and 46
protein levels of connexins (connexins): affects the protein levels of specific connexins; also recorded: does affect protein levels of connexins, but not consistently
cell migration (distance traveled from the edge of a wound) (A375.52 cells): no effect
